Each structure is given as a SMILES string.

Test [1] concerns the target PKCd (Homo sapiens, UniProt Q05655). As to the kind of experiment: Kinase panel 33P-ATP filter assay, PKCd. The following applies: HCl salt tested; ATP Conc. 10 μM (Km); read-out: Compound IC50 (nM) PKCd. Format: biochemical. The procedure:
(§1) The HCl salts of S enantiomer and the R enantiomer of compound A were tested against a panel of kinases.
(§2) Compounds were received as powder and resuspended to 10 mM DMSO stock. Compounds were tested in 10-dose IC50 mode with a 3-fold serial dilution starting at 10 μM. Control compound, staurosporine, was tested in 10-dose IC50 mode with 4-fold serial dilution starting at 20 μM.
(§3) Reaction Conditions: Buffer Conditions: 20 mM HEPES ((4-(2-hydroxyethyl)-1-piperazineethanesulfonic acid; pH 7.5), 10 mM MgCl2, 1 mM EGTA (Ethyleneglycol-bis(p-aminoethyl)-N,N,N′,N′-tetraacetic Acid), 0.01% Brij35, 0.02 mg/ml BSA (Bovine serum albumin), 0.1 mM Na3VO4, 2 mM DTT (Dithiothreitol), 1% DMSO. Reaction Procedure: 1. Prepare indicated substrate in freshly prepared reaction buffer. 2. Deliver required cofactors to the substrate solution above. 3. Deliver indicated kinase into the substrate solution and mix gently. 4. Deliver compounds in DMSO into the kinase reaction mixture utilizing acoustic technology (Echo550). 5. Deliver ^33P-ATP (specific activity 0.01 μCi/μl final) into the reaction mixture to initiate the reaction. 6. Incubate kinase reaction for 120 minutes at room temperature. 7. […] Data Analysis: Kinase activity data were expressed as the percent remaining kinase activity in test samples compared to vehicle (dimethyl sulfoxide) reactions. […]

Test [2] deals with T1, PKCepsilon (Homo sapiens, UniProt Q02156).
T1 sequence (Q02156 1-737): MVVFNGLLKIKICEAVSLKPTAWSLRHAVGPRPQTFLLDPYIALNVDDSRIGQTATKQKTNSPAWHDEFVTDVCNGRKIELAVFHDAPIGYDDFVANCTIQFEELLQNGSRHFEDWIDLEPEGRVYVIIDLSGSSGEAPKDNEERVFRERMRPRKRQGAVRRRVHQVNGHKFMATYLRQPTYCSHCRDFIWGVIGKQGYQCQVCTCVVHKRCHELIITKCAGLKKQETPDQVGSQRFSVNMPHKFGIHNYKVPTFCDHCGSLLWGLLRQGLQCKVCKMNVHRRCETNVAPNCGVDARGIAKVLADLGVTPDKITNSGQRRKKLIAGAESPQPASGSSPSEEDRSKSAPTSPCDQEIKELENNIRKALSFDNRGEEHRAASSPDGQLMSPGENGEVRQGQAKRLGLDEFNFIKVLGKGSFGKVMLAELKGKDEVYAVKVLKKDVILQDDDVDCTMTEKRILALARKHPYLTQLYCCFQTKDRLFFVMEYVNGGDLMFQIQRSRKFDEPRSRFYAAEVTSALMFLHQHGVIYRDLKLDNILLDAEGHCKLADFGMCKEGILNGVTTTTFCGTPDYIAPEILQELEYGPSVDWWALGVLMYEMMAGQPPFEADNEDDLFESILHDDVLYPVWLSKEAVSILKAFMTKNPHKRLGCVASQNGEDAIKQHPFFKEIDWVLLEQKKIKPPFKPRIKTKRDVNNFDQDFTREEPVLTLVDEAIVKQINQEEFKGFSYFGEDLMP
As to the kind of experiment: Kinase panel 33P-ATP filter assay, PKCepsilon. Format: biochemical. The following applies: HCl salt tested; ATP Conc. 10 μM (Km); read-out: Compound IC50 (nM) PKCepsilon. The procedure: as §1, §2, §3

For test [3], the target named is T2, Norepinephrine transporter (Homo sapiens, UniProt P23975).
T2 construct: expressed in transfected cells
Briefly: CEREP panel norepinephrine transporter uptake (h), [3H]NE incorporation. Format: cell-based. The following applies: HCl salt tested; [3H]NE incorporation into cells. An excerpt:
The use of in vitro pharmacological screening against a diverse range of targets (receptors, ion channels, enzymes and transporters) is used to identify undesirable off-target activity that may cause adverse drug reactions in humans. Screening panels (e.g. SafetyScreen44™ Panel, Eurofins) comprise a selection of off-targets linked with known issues in humans that could hinder or halt the development of drug candidates or market withdrawal if discovered after a drug is approved. The HCl salts of the S enantiomer and the R enantiomer of compound A were tested against a panel of such targets.
The tests were carried out according to the methods described in the following tables and indicated literature references.

The target in test [4] is ROCK1 (Homo sapiens, UniProt Q13464). Briefly: Activity against kinase ROCK1. It is filed as biochemical. The following applies: comparison of enantiomers.
ROCK1, sequence (Q13464 whole entry, species assumed): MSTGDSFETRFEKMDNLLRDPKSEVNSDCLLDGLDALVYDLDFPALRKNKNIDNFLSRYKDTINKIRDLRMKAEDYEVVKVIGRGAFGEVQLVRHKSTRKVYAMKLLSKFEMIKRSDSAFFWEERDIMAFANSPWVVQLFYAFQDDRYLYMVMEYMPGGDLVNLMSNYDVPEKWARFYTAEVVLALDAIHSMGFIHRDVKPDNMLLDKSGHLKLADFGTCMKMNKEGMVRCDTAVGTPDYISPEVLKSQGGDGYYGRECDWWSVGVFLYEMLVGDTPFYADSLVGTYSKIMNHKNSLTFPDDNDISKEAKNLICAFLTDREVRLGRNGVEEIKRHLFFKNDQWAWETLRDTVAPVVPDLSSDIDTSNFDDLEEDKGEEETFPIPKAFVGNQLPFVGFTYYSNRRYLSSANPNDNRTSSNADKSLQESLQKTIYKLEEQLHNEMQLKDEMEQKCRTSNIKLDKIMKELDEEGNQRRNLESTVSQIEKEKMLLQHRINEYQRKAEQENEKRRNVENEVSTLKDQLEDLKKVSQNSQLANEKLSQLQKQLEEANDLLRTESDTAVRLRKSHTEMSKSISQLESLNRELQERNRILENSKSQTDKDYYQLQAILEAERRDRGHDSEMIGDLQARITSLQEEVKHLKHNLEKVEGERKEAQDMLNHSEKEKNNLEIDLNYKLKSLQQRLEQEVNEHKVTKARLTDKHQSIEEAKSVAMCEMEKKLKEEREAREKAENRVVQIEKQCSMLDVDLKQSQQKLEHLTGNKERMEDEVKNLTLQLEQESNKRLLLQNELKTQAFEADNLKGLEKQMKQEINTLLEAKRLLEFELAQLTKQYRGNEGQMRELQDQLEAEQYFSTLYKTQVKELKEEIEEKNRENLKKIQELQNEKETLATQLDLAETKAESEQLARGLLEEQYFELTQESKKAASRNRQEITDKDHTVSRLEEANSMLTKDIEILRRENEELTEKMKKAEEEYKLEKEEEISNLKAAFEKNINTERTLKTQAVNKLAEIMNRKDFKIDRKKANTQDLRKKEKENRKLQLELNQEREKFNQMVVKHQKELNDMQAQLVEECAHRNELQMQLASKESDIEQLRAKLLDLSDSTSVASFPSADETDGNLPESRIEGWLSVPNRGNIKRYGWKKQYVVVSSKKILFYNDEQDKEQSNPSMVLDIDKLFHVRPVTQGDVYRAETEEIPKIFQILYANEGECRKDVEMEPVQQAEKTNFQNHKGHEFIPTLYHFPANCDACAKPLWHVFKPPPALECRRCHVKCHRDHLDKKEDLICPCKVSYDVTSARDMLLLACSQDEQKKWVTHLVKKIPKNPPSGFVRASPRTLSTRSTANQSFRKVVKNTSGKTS

T2 sequence (P23975 whole entry): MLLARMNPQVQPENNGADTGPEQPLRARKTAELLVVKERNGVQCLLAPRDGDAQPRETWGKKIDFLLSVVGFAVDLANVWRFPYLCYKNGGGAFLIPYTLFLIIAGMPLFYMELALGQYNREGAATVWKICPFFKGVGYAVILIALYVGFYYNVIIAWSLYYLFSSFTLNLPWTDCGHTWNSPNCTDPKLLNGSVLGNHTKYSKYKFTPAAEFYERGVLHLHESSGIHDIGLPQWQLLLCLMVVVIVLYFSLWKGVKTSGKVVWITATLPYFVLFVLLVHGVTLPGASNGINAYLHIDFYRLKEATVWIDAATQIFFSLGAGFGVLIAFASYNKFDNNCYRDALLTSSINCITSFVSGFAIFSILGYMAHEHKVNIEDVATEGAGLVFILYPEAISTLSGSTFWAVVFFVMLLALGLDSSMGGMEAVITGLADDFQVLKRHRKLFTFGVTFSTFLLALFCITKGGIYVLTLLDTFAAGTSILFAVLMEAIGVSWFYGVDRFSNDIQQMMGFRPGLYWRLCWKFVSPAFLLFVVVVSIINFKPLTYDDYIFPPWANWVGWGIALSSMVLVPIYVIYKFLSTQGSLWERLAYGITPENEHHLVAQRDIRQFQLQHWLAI
PKCd, sequence (Q05655 whole entry, species assumed): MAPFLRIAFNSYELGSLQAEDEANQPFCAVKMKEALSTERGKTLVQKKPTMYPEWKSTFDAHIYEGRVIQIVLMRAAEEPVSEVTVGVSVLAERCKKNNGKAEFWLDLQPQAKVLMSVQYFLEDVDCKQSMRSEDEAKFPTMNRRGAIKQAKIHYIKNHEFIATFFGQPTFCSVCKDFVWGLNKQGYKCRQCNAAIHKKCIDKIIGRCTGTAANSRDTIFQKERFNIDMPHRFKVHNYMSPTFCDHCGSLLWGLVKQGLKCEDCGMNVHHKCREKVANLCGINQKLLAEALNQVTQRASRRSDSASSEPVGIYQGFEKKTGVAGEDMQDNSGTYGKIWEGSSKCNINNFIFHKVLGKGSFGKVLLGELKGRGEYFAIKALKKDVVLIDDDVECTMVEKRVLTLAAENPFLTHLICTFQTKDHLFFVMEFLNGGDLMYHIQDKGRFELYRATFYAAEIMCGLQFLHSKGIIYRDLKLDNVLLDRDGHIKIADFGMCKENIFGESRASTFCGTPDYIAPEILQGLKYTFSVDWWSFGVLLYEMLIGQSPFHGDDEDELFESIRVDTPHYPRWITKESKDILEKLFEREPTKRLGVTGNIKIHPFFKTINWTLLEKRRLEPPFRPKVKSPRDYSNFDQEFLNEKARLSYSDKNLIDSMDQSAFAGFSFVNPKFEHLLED

By IC50 is commonly meant the concentration that inhibits the measured activity by half. For the compound `NCc1ccc(C(=O)Nc2ccncc2F)cc1-c1cccc(C(=O)Nc2ccc(SC[C@@H]3CCOC3=O)cc2)c1` [R-enantiomer], the IC50 in test [1] is under 0.5 nM; in test [2], 2.9 nM; in test [3] it was 8900 nM. The “Difference between activities of S- and R-enantiomer against ROCK1” value in test [4] is reported as “no statistically meaningful difference”.
As to `NCc1ccc(C(=O)Nc2ccncc2F)cc1-c1cccc(C(=O)Nc2ccc(SC[C@H]3CCOC3=O)cc2)c1` [S-enantiomer], the IC50 in test [1] was 0.9 nM; in test [2], 6.7 nM; in test [3] it was 21000 nM. Further, in test [4], the “Difference between activities of S- and R-enantiomer against ROCK1” value is “no statistically meaningful difference”.

The values are drawn from patent US20260078108A1, “SOLID FORMS OF A ROCK INHIBITOR” (REDX PHARMA PLC, priority 2022, published 2026).
